Measured values taken from publication PMC9121888 (Pharmacology Research & Perspectives, 2022).
Where two headings read alike, the source gives them in different places.

Legend:
[1] = Study 1 plasma pharmacokinetics of verinurad, allopurinol and oxypurinol; assay type: in vivo, human; details: for Tmax: median (range)
Description: Cohort 1 was randomized, double‐blind, and placebo‐controlled and consisted of 12 healthy Asian participants, of whom <50% were Chinese. Cohort 2 was open‐label, consisting of 9 healthy Chinese participants.
In both studies, participants received verinurad capsules with an extended‐release profile. On the days of pharmacokinetic sampling, treatment was given in fasting state.
Verinurad plasma samples were analyzed using similar methodologies as described by Shen et al.[13] with lower and upper limits of quantification of 0.100 ng/mL and 40.0 ng/mL, respectively.

[2] = system: serum uric acid (sUA) and urinary uric acid (uUA); details: for sUA mean percentage change from screening: after 300 mg allopurinol QD for 7 days, day 1 (pre-dose); for sUA level at baseline (day –1): following 7 days of 300 mg allopurinol run-in
[3] = human, plasma, oral, healthy Asian participants, 24 mg verinurad + 300 mg allopurinol QD, Day 1, geometric mean (gCV%), read-out: Cmax
[4] = human, plasma, oral, healthy Asian participants, 24 mg verinurad + 300 mg allopurinol QD, Day 1, read-out: tmax
[5] = human, plasma, oral, healthy Asian participants, 24 mg verinurad + 300 mg allopurinol QD, Day 7, geometric mean (gCV%), read-out: AUCτ
[6] = human, plasma, oral, healthy Asian participants, 24 mg verinurad + 300 mg allopurinol QD, Day 7, geometric mean (gCV%), read-out: Cmax
[7] = human, plasma, oral, healthy Chinese participants, 12 mg verinurad + 300 mg allopurinol day 1 and QD days 3-9, Day 9, geometric mean (gCV%), read-out: AUCτ
[8] = human, plasma, oral, healthy Chinese participants, 12 mg verinurad + 300 mg allopurinol day 1 and QD days 3-9, Day 9, read-out: tmax
[9] = human, plasma, oral, healthy Chinese participants, 12 mg verinurad + 300 mg allopurinol, Day 1, geometric mean (gCV%), read-out: AUC
[10] = human, plasma, oral, healthy Chinese participants, 12 mg verinurad + 300 mg allopurinol, Day 1, geometric mean (gCV%), read-out: AUCτ
[11] = human, plasma, oral, healthy Chinese participants, 12 mg verinurad + 300 mg allopurinol, Day 1, geometric mean (gCV%), read-out: Cmax
[12] = human, plasma, oral, healthy Chinese participants, 12 mg verinurad + 300 mg allopurinol, Day 1, read-out: tmax

Structure (SMILES)	Cmax [1, 3] [ng/mL]	Tmax [1, 4] [h]	AUC [1, 5] [ng·h/mL]	Cmax [1, 6] [ng/mL]	AUC [1, 7] [ng·h/mL]	Tmax [1, 8] [h]	AUC [1, 9] [ng·h/mL]	AUC [1, 10] [ng·h/mL]	Cmax [1, 11] [ng/mL]	Tmax [1, 12] [h]	also measured
O=c1[nH]c(=O)c2c[nH]nc2[nH]1 [Oxypurinol, oxypurinol]	11100	3	120000	7700	139000	3.1	342000	201000	11800	2	AUCτ ([1]; healthy Asian participants, 24 mg verinurad + 300 mg allopurinol QD, Day 1, geometric mean (gCV%)): 180700 (18.3) ng·h/mL; Tmax ([1]; healthy Asian participants, 24 mg verinurad + 300 mg allopurinol QD, Day 7): 4.00 (3.00–6.00) h; Cmax ([1]; healthy Chinese participants, 12 mg verinurad + 300 mg allopurinol day 1 and QD days 3-9, Day 9, geometric mean (gCV%)): 8520 (10.5) ng/mL
Oc1ncnc2[nH]ncc12 [allopurinol, reference compound]	1770	2	6020	1780	5740	2.55	6210	6210	1940	1.52	AUC ([1]; human, plasma, oral, healthy Asian participants, 24 mg verinurad + 300 mg allopurinol QD, Day 1, geometric mean (gCV%), read-out: AUC): 6220 ng·h/mL; AUC ([1]; human, plasma, oral, healthy Asian participants, 24 mg verinurad + 300 mg allopurinol QD, Day 1, geometric mean (gCV%), read-out: AUCτ): 6230 ng·h/mL; Tmax ([1]; human, plasma, oral, healthy Asian participants, 24 mg verinurad + 300 mg allopurinol QD, Day 7, read-out: tmax): 3 h; Cmax ([1]; human, plasma, oral, healthy Chinese participants, 12 mg verinurad + 300 mg allopurinol day 1 and QD days 3-9, Day 9, geometric mean (gCV%), read-out: Cmax): 1570 ng/mL; sUA mean percentage change from screening ([2]; healthy Asian participants): −26.1%; sUA level at baseline (day –1) ([2]; healthy Asian participants, screening 6.31 mg/dL): 4.77 mg/dL; sUA mean percentage change from screening ([2]; healthy Chinese participants): −23.5%; sUA level at baseline (day –1) ([2]; healthy Chinese participants, screening 5.64 mg/dL): 4.49 mg/dL
